Reference: article PMC7824787, “Design, Synthesis and In Vitro Investigation of Novel Basic Celastrol Carboxamides as Bio-Inspired Leishmanicidal Agents Endowed with Inhibitory Activity against Leishmania Hsp90” (Biomolecules, 2021)

System: L. infantum promastigotes
Assay: Morphological differentiation of Leishmania promastigotes
Type: cell-based, Leishmania infantum
Settings: 50 ng/mL, 23 °C, 48 h (Figure 6)
Description: L. infantum promastigotes were diluted in complete medium to 4 × 10^7 parasites/mL and 250 µL of the suspension were seeded into the 24 wells plates and incubated at 23 °C in the presence of geldanamycin, CE or compound 2 at the final concentration of 50 ng/mL. Cultures without drugs incubated at 23 °C or at 37 °C were used as negative and positive control, respectively. After 24 or 48 h of incubation, parasite morphology was evaluated by optical microscopy at 100× (Eclipse Ti Series, Nikon, Minato, Tokyo, Japan) on Giemsa stained smears (a mixture of eosin, methylene blue and Azure-B diluted 1:10). The percent of round promastigotes in treated and non-treated cells was determined. Images were taken at the same magnification by using a digital camera (Nikon Digital Sight). About 500 promastigotes were counted in 4 random fields.
The compounds were incubated (23 °C, physiological pH) with L. infantum promastigotes at a sub-IC50 concentration of 50 ng/mL. […] After 24 h and 48 h the presence of round, amastigote-like cells, was monitored (Figure 6). A negative and positive control experiment (NC and PC, Figure 6a,b) were also conducted growing the promastigotes at 23 °C and 37 °C, respectively.

Row | Compound | round amastigote-like cells (morphological differentiation)
1 | CC1=C(O)C(=O)C=C2C1=CC=C1[C@@]2(C)CC[C@@]2(C)[C@@H]3C[C@](C)(C(=O)O)CC[C@]3(C)CC[C@]12C [CE, celastrol] | neither CE nor compound 3 produced this effect
2 | CC1=C(O)C(=O)C=C2C1=CC=C1[C@@]2(C)CC[C@@]2(C)[C@@H]3C[C@](C)(C(=O)NCCN4CCCC4)CC[C@]3(C)CC[C@]12C [compound 3, (2R,4aS,6aS,12bR,14aS,14bR)-10-hydroxy-2,4a,6a,9,12b,14a-hexamethyl-11-oxo-N-(2-(pyrrolidin-1-yl)ethyl)-1,2,3,4,4a,5,6,6a,11,12b,13,14,14a,14b-tetradecahydropicene-2-carboxamide] | neither CE nor compound 3 produced this effect
